Source: article PMC7725506, “Functional Diversification of SRSF Protein Kinase to Control Ubiquitin-Dependent Neurodevelopmental Signaling” (Developmental Cell, 2020)

Columns and labels:
[1] = test system: Ser-Arg rich splicing factors (SRSF); assay: SRSF phosphorylation in mESCs, immunoblotting with phosphoepitope SR proteins antibody; assay type: cell-based, mouse; settings: 10 μM, 4 h
Description: SRSF phosphorylation, SRPK1, SRPK2, and ERK1/2 levels were determined by immunoblotting. […] Quantification of SRSF phosphorylation (Right). Data represented as mean ± SEM (n = 4). […] Data represented as mean ± SEM (n = 3). One-way ANOVA followed by Tukey’s multiple comparisons test; confidence level 95%.
All compounds were diluted in DMSO and mESCs treated with 10 μM inhibitor for 4 h prior lysis unless indicated otherwise.
SDS-PAGE electrophoresis and immunoblotting was performed using standard methods. Cells were lysed in lysis buffer (20 mM Tris [pH 7.4], 150 mM NaCl, 1 mM EDTA, 1% NP-40 [v/v], 0.5% sodium deoxycholate [w/v], 10 mM β-glycerophosphate, 10 mM sodium pyrophosphate, 1 mM NaF, 2 mM Na3VO4, and Roche Complete Protease Inhibitor Cocktail Tablets). Phospho-specific antibodies were used at 1 μg/ml with 10 μg/ml of the corresponding non-phosphopeptide. After secondary antibody incubation, membranes were subjected to chemiluminescence detection with Immobilon Western Chemiluminescent HRP Substrate (Millipore) using a Gel-Doc XR+ System (Bio-Rad) or Infrared detection using a LI-COR Odyssey Clx system.

[2] = target: SRPK2 (Homo sapiens, UniProt P78362); assay: REX1 fluorescent ubiquitylation assay with recombinant RNF12 incubated with SRPK2; assay type: biochemical; settings: pre-incubation with 10 μM
Description: Infrared scans of ubiquitylated substrate signal (Top) and quantification (Bottom). Data represented as mean ± SEM (n = 3). […] (^∗) p = 0.0350. Phospho-Ser214 and total RNF12, REX1, and SRPK2 infrared immunoblots are shown. ^∗ = non-specific fluorescent signal. (B) Recombinant RNF12 was incubated with WT or kinase dead (KD) SRPK2 and subjected to REX1 fluorescent ubiquitylation assays. Infrared scans of ubiquitylated substrate signal (Top) and quantification (Bottom). Data represented as mean ± SEM (n = 3). […] (^∗∗∗∗) p < 0.0001. Phospho-Ser214 and total RNF12, REX1, and SRPK2 infrared immunoblots are shown. ^∗ = non-specific fluorescent signal. (C) Recombinant RNF12 was incubated with WT or KD SRPK2 and SMAD7 ubiquitylation assessed. Infrared scans of ubiquitylated substrate signal (Top) and quantification (Bottom). Data represented as mean ± SD (n = 2). Phospho-Ser214 and total RNF12, REX1, and SRPK2 infrared immunoblots are shown. ^∗ = non-specific fluorescent signal. (D) Recombinant RNF12 was incubated with WT (pRNF12) or KD (unpRNF12) SRPK2 and subjected to E2 ubiquitin discharge assay. Infrared immunoblot scans (Top Left), reaction rate determinations (Top Right) and normalized quantification of E2-ubiquitin conjugate signal (Bottom) are shown. […] RNF12, REX1, phospho-Ser214 RNF12 and SRPK1 infrared immunoblots (Top) and RNF12-REX1 binding quantification (bottom) are shown. […]

[3] = target: T1, SRPK1 (Mus musculus, UniProt O70551); assay: SRPK1 immunoprecipitation kinase assay from inhibitor-treated mESCs with RNF12 as substrate; assay type: cell-based; settings: mESCs pre-treated with 10 μM for 4 h
T1 construct: endogenous in cells; host or cells: mESCs (CCE line)
Description: SRSF phosphorylation, SRPK1, SRPK2, and ERK1/2 levels were determined by immunoblotting. Expected positions of SRSFs that are not detected are shown in gray. Quantification of SRSF phosphorylation (Right). Data represented as mean ± SEM (n = 4). […] Neuro 2a is a control for exon 16b exclusion in differentiated cells (Bottom). Data represented as mean ± SEM (n = 3). […] Exon 16 inclusion: (^∗∗∗∗) p < 0.0001, Exon 16b inclusion: (^∗) p = 0.0164, p = 0.0485, and p = 0.0489 (left to right). Ratio exon 16b/16: (^∗∗∗∗) p < 0.0001, (^∗∗∗) p = 0.0003. (C) SRPK substrates predicted using ScanProsite and grouped according to UniProt functions. (D) RNF12 phosphorylation sites detected by mass-spectrometry. LZL, leucine-zipper like; NLS, nuclear localization signal; NES, nuclear export signal; RING, RING E3 ubiquitin ligase catalytic domain. (E) CMGC family kinase copy numbers in mESCs determined by quantitative proteomics and represented using Kinoviewer. (F) CMGC kinase (200 mU) phosphorylation of the RNF12 SR-motif in vitro was determined by immunoblotting for RNF12 phospho-Ser214 and total RNF12. […] Normalized RNF12 Ser214 phosphorylation is shown below. Data represented as mean ± SEM (n = 3). […] RNF12 SR-motif phosphorylation was analyzed by immunoblotting for RNF12 phospho-Ser214 and RNF12. SRPK1 and SRPK2 levels are shown as a loading control, Related to Figure S1; Tables S1 and S2. […]

T1 sequence (O70551 whole entry): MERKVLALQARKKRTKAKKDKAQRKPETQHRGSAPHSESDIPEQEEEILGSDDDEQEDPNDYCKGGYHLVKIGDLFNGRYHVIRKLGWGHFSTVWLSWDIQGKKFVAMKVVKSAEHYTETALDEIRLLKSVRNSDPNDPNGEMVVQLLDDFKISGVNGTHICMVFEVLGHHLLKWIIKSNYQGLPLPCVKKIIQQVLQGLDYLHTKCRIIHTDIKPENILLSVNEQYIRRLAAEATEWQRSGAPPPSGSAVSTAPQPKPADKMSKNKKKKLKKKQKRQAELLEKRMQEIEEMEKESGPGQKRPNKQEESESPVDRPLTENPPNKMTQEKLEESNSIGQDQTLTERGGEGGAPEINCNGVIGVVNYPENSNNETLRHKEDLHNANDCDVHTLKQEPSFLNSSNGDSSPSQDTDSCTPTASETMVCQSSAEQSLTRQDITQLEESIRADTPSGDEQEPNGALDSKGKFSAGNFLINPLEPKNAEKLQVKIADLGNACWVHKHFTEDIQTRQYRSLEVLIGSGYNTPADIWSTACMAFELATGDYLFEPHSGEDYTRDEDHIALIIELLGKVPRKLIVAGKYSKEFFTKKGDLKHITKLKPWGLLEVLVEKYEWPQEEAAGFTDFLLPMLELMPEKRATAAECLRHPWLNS
Sequence of SRPK2 (P78362 1-699 isoform P78362-2): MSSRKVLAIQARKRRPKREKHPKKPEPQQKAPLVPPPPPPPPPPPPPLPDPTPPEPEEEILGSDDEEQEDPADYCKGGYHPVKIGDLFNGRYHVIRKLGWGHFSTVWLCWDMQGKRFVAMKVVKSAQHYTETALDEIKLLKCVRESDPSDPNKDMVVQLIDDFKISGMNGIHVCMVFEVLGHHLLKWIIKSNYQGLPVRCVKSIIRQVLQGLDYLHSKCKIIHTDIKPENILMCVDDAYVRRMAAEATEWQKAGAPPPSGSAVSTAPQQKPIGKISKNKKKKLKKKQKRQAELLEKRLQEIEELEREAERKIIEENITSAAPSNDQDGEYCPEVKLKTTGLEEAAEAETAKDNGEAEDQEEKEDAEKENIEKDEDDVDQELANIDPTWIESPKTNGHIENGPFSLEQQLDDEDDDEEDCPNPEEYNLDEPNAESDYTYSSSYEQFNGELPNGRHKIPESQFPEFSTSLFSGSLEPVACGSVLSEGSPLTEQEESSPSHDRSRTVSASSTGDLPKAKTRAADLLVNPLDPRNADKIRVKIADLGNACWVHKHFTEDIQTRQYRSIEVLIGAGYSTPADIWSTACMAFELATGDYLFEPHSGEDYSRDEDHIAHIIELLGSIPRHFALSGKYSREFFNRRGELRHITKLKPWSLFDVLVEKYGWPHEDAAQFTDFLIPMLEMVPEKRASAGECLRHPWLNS

## CCc1cc2c(cc1-c1cccc(S(=O)(=O)F)c1)C(C)(C)c1[nH]c3cc(C#N)ccc3c1C2=O [SRPKIN-1]
[1]
  phosphorylation of SRSF4: only slightly inhibited
  phosphorylation of SRSF6/11, SRSF5/7/10: not significantly altered
[2]
  enhancement of REX1 ubiquitylation following RNF12 phosphorylation by SRPK2: not observed
[3]
  inhibition of SRPK1 in vivo (ability of immunoprecipitates to phosphorylate RNF12): potently inhibited
